Laboratory results published in PubChem BioAssay (NCI).
Values joined by “and” are separate entries in the source; they are usually repeats but may differ in a detail not shown here. Equal entries are not always repeated.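 Grown in 96-well plates, cells were treated for 48 hours with each compound at five concentrations. Insufficient inhibition: endpoint recorded as highest concentration tested. The concentration for 50% growth inhibition is given as GI50. At the TGI there is no net growth.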

Assays:
Assay in all cases: inhibition of tumour cell growth, NCI panel, 48 h
DLD-1 colon = tested on: DLD-1 colon
XF 498 CNS = tested on: XF 498 CNS
RXF-631 renal = tested on: RXF-631 renal
DMS 273 small cell lung = tested on: DMS 273 small cell lung
LXFL 529 NSCLC = tested on: LXFL 529 NSCLC
DMS 114 small cell lung = tested on: DMS 114 small cell lung
M19-MEL melanoma = tested on: M19-MEL melanoma
HOP-18 NSCLC = tested on: HOP-18 NSCLC
MDA-N = tested on: MDA-N

Row | SMILES | TGI (DLD-1 colon) [µM] | TGI (XF 498 CNS) [µM] | TGI (RXF-631 renal) [µM] | TGI (DMS 273 small cell lung) [µM] | TGI (LXFL 529 NSCLC) | TGI (DMS 114 small cell lung) [µM] | TGI (M19-MEL melanoma) [µM] | TGI (HOP-18 NSCLC) [µM] | TGI (MDA-N) [µM] | GI50 (DLD-1 colon) [µM] | GI50 (DMS 273 small cell lung) [µM] | GI50 (LXFL 529 NSCLC) | GI50 (DMS 114 small cell lung) [µM] | GI50 (M19-MEL melanoma) [µM] | GI50 (HOP-18 NSCLC)
1 | CCOC(=O)C1=C(C)N(NC(=O)Nc2ccccc2)C2(N)N(NC(=O)Nc3ccccc3)C(C)=C(C(=O)OCC)C12C(=O)OCC (stereo not given) | > 100 | 37.9 | > 100 | > 100 | > 100 µM | > 100 | > 100 | 54.6 |  |  |  |  |  |  | 
2 | CN1C(=O)C(=O)N2c3ccc(Cl)cc3C3(c4ccccc4)N=CC12O3 (stereo not given) | 10.3 | 12.3 |  | 16.4 | 10.2 µM | 11.6 | 13.7 | 34.6 |  |  |  |  |  |  | 
3 | O=C(/C=C/c1c(O)ccc2ccccc12)c1ccc([N+](=O)[O-])cc1 | 40.8 | > 100 |  | > 100 | 30.4 µM | 41.1 | 35.4 | 47.6 |  |  |  |  |  |  | 
4 | O=C(Nc1nc(=S)[nH][nH]1)C(=O)C(C(=O)c1ccc2ccccc2c1)C1OC(=O)c2ccccc21 (stereo not given) | 44.6 | 41.9 | 77.6 | 87.5 | 52.7 µM | 52.7 | 30.6 | 40.2 |  |  |  |  |  |  | 
5 | O=C(NC1C=CCC2C(=O)N(c3ccccc3)C(=O)C12)OCc1ccccc1 (stereo not given) | > 100 | > 100 |  | > 100 | > 100 µM |  | > 100 | > 100 |  |  |  |  |  |  | 
6 | O=C(O)CSc1n[nH]c(-c2ccccc2O)n1 | > 100 | > 100 | > 100 | > 100 | > 100 µM | > 100 | > 100 |  |  |  |  |  |  |  | 
7 | CCCCCCCCCCCCNC(=S)OC | 28.9 | 30.6 |  | 29.3 | 28.2 µM | 17.9 | 32.7 | 32.3 |  |  |  |  |  |  | 
8 | Nc1nc2[nH]cc(CCc3ccc(C(=O)N[C@@H](CCC(=O)O)C(=O)O)cc3)c2c(=O)[nH]1 |  |  |  |  |  |  |  |  | > 100 |  |  |  |  |  | 
9 | O=C1CSC(=S)N1/N=C/c1ccc(Cl)c([N+](=O)[O-])c1 |  |  |  |  |  |  |  |  | 52.6 |  |  |  |  |  | 
10 | Cc1ccc(S(=O)(=O)N2CCC2c2ccccc2)cc1 (stereo not given) |  | > 100 |  | > 100 |  | > 100 | > 100 | > 100 |  |  |  |  |  |  | 
11 | COc1ccc2c(c1)[n+]([O-])c(C(N)=O)c(N)[n+]2[O-] | > 100 |  | > 100 | > 100 | > 100 µM | 98.8 | > 100 | > 100 |  |  |  |  |  |  | 
12 | C[C@@]1(O)CC[C@]2(C)C3CCCC3[C@H]12 (stereo not given in full) | > 100 |  | > 100 | > 100 | > 100 µM | > 100 | > 100 | > 100 |  |  |  |  |  |  | 
13 | CN(C)C(=S)/N=c1\ssc(=S)n1C1CCCCC1 | 58.2 | 59.3 | 40.8 | > 100 | 75.6 µM | 50.5 | > 100 | > 100 |  |  |  |  |  |  | 
14 | NC(N)=NS(=O)(=O)c1ccc(N=Nc2c(O)c(C(=O)O)cc3ccccc23)cc1 |  |  |  |  |  |  |  |  | > 100 |  |  |  |  |  | 
15 | Br[Se]c1ccccn1 |  |  |  |  |  |  |  |  | 32.2 |  |  |  |  |  | 
16 | N#CC(C(=O)CCC(=O)Nc1ccc(Cl)c(Cl)c1)c1ccccc1 (stereo not given) | > 100 | > 100 |  | > 100 |  | > 100 | > 100 | > 100 |  |  |  |  |  |  | 
17 | COc1ccc(/C=C/COC(C)=O)cc1OC |  |  |  | > 100 | > 100 µM | > 100 | > 100 |  |  |  |  |  |  |  | 
18 | O=S1C(=c2ccc(=C3Sc4ccccc4S3)cc2)Sc2ccccc21 (stereo not given) | > 93.3 |  |  | 37.1 | > 100 µM | > 56.4 | 38.3 | > 100 |  |  |  |  |  |  | 

Row | SMILES | TGI (DLD-1 colon) [µM] | TGI (XF 498 CNS) [µM] | TGI (RXF-631 renal) [µM] | TGI (DMS 273 small cell lung) [µM] | TGI (LXFL 529 NSCLC) | TGI (DMS 114 small cell lung) [µM] | TGI (M19-MEL melanoma) [µM] | TGI (HOP-18 NSCLC) [µM] | TGI (MDA-N) [µM] | GI50 (DLD-1 colon) [µM] | GI50 (DMS 273 small cell lung) [µM] | GI50 (LXFL 529 NSCLC) | GI50 (DMS 114 small cell lung) [µM] | GI50 (M19-MEL melanoma) [µM] | GI50 (HOP-18 NSCLC)
19 | Cc1[cH-]c(=O)n(-c2ccccc2)n1.[Au+].[Au].c1ccc([PH+](c2ccccc2)c2ccccc2)cc1.c1ccc([PH+](c2ccccc2)c2ccccc2)cc1 | 41.5 |  |  | 30.7 | 2.38 µM and 3.55 µM | 11.6 | > 100 | 27 |  | 15.7 | 10.3 | 0.488 µM and 1.09 µM | 2.81 | 28.1 | 4.06 µM and 10.3 µM
20 | CC(=O)OC1(C)N=NC2(CCCCC2)O1 (stereo not given) |  |  |  |  |  |  |  |  | > 100 |  |  |  |  |  | 
21 | S=P1(Oc2ccccc2)NNP2(=NP(N3CC3)(N3CC3)=NP(N3CC3)(N3CC3)=N2)NN1 (stereo not given) | > 100 | > 100 | > 100 | > 100 | > 100 µM | > 100 | > 100 | > 100 |  |  |  |  |  |  | 
22 | CC#Cc1ccc(-c2ccccc2)s1 |  |  |  |  |  |  |  |  | > 100 |  |  |  |  |  | 
23 | O=C1C(C(Nc2ccccc2)c2ccccc2)=C([O-])c2ccccc21.O=C1C(C(Nc2ccccc2)c2ccccc2)=C([O-])c2ccccc21.[Cu+2] (stereo not given) | > 100 |  |  | > 100 |  |  | > 100 | > 100 |  | 34.6 | 26.3 |  |  | > 100 | > 100 µM
24 | C=C(C)C12OC1[C@@]1(C)C(=CC2=O)CCC(O)[C@@H]1C (stereo not given in full) |  |  |  |  |  |  |  |  | 17.3 |  |  |  |  |  | 
25 | C[C@@H]1CC[C@H]2C(C)(C)[C@H]3C[C@@]12CC[C@@]3(C)O |  |  |  |  |  |  |  |  | > 100 |  |  |  |  |  | 
26 | CCCOc1nc(N)c2cnn(C3CCCCO3)c2n1 (stereo not given) | > 100 |  |  | > 100 | > 100 µM | > 100 | > 100 | > 100 |  |  |  |  |  |  | 
27 | CN(C)C=Nc1nc(=O)n(C2CCC(CO)O2)cc1F (stereo not given) | > 100 | > 100 |  | > 100 | > 100 µM |  |  | > 100 |  |  |  |  |  |  | 
28 | CC1(C)CC(c2c[nH]c3ccccc23)=CC2=Nc3ccccc3C21O (stereo not given) | > 100 | > 100 |  | > 100 | > 100 µM | > 100 | > 100 |  |  |  |  |  |  |  | 
29 | CN(C)CC1CCCC/C1=N/O (stereo not given) | > 100 |  | > 100 | > 100 | > 100 µM | > 100 | > 100 | > 100 |  |  |  |  |  |  | 
30 | CCC(C)SC1SCC2C(=O)N(C)C3(CC3C)C(=O)OCC(NC(=O)c3nc4ccccc4cc3O)C(=O)NC(C)C(=O)N(C)C1C(=O)N(C)C1(CC1C)C(=O)OCC(NC(=O)c1nc3ccccc3cc1O)C(=O)NC(C)C(=O)N2C (stereo not given) | 0.0732 | 0.000434 | 1.22 | 0.000123 | 0.791 µM | 0.000279 | 0.000236 | 24.1 | 0.000162 |  |  |  |  |  | 
31 | CN(C)CC1CCC/C1=N/OC(=O)c1ccccc1 (stereo not given) | > 100 |  | > 100 | > 100 | > 100 µM | > 100 | > 100 | > 100 |  |  |  |  |  |  | 
32 | O=c1c2cccnc2ncn1CCN1CCCCC1 | > 100 | > 100 |  | > 100 | > 100 µM | > 100 | > 100 |  |  |  |  |  |  |  | 
33 | N#CCCC[Si]12OCCN(CCO1)CCO2 | > 100 |  |  | > 100 | > 100 µM | > 100 | > 100 | > 100 |  |  |  |  |  |  | 
34 | Clc1ccc2cccc3c2c1C1OC3c2ccccc21 (stereo not given) | > 100 | > 100 |  | > 100 | > 100 µM | > 100 | > 100 | > 100 |  |  |  |  |  |  | 
35 | CC(=O)Nc1cc2ccc(=O)oc2cc1Cl |  |  |  |  |  |  |  |  | > 100 |  |  |  |  |  | 
36 | C=C(C)C(=O)O[C@@H]1C[C@@]2(C)O[C@@H]2C[C@H](O)/C(C)=C/[C@H]2OC(=O)C(=C)[C@@H]21 |  |  |  |  |  |  |  |  | > 100 |  |  |  |  |  | 
